Values joined by “and” are separate entries in the source; they are usually repeats but may differ in a detail not shown here. Equal entries are not always repeated.
Experiments:
[1] = biological target: T1, R67 dihydrofolate reductase (R67 DHFR) (Escherichia coli, UniProt P00383); test: steady-state DHFR inhibition, Lineweaver–Burk slope replot; assay type: biochemical
T1 sequence (P00383 1-78): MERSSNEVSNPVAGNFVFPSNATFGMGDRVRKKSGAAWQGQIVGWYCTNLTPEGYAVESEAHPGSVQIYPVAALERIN

[2] = biological target: T1, R67 dihydrofolate reductase (R67 DHFR); test: steady-state DHFR inhibition vs DHF; assay type: biochemical
[3] = biological target: T2, R67 dihydrofolate reductase (K33M) (Escherichia coli, UniProt P00383, K33M); test: folate reduction kinetics; assay type: biochemical
T2 sequence (P00383 4-78 K33M): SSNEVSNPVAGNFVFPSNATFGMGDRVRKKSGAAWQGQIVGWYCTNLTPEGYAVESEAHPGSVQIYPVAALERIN

[4] = biological target: chymotrypsin-truncated R67 dihydrofolate reductase; test: AUC
[5] = biological target: chymotrypsin-truncated R67 dihydrofolate reductase cross-linked to folate with EDC; test: AUC

NCCNC(=O)CC[C@H](NC(=O)c1ccc(NCc2cnc3nc(N)[nH]c(=O)c3n2)cc1)C(=O)NCCN [bis-EDA–folate]
Ki [1]: 140 ± 15 µM

Nc1nc(=O)c2nc(CNc3ccc(C(=O)N[C@@H](CCC(=O)O)C(=O)O)cc3)cnc2[nH]1 [folate]
Ki [2]: 16 ± 3 µM
folate reduction kinetics (kcat) and EDC cross-linking inactivation [3]: 0.065 ± 0.017 min^–1

chymotrypsin-truncated R67 dihydrofolate reductase (enzyme)
stoichiometry N [4]: 4 and 2

chymotrypsin-truncated R67 dihydrofolate reductase cross-linked to folate with EDC (enzyme)
stoichiometry N [5]: 4
